In ChEMBL document CHEMBL4138123, “Design, synthesis and biological evaluation of novel pyrazolochalcones as potential modulators of PI3K/Akt/mTOR pathway and inducers of apoptosis in breast cancer cells” (Eur J Med Chem, 2017):

Tests used:
Format in all cases: functional
CAKI-1 [1] = experiment: Cytotoxicity against human Caki1 cells assessed as growth inhibition after 48 hrs by sulforhodamine B assay; details: CAKI-1, 48 h
CAKI-1 [2] = experiment: Cytotoxicity against human Caki1 cells assessed as cell growth at 0.01 uM after 48 hrs by sulforhodamine B assay relative to control; details: CAKI-1, 48 h, read-out: Activity
SK-MEL-2 [3] = experiment: Cytotoxicity against human SK-MEL-2 cells assessed as cell growth at 0.01 uM after 48 hrs by sulforhodamine B assay relative to control; details: SK-MEL-2, 48 h, read-out: Activity
LOX IMVI [4] = experiment: Cytotoxicity against human LOXIMVI cells assessed as cell growth at 0.01 uM after 48 hrs by sulforhodamine B assay relative to control; details: read-out: Activity
LOX IMVI [5] = experiment: Cytotoxicity against human LOXIMVI cells assessed as cell growth at 0.1 uM after 48 hrs by sulforhodamine B assay relative to control; details: read-out: Activity
SK-MEL-2 [6] = experiment: Cytotoxicity against human SK-MEL-2 cells assessed as cell growth at 0.1 uM after 48 hrs by sulforhodamine B assay relative to control; details: SK-MEL-2, 48 h, read-out: Activity
CAKI-1 [7] = experiment: Cytotoxicity against human Caki1 cells assessed as cell growth at 0.1 uM after 48 hrs by sulforhodamine B assay relative to control; details: CAKI-1, 48 h, read-out: Activity
LOX IMVI [8] = experiment: Cytotoxicity against human LOXIMVI cells assessed as cell growth at 1 uM after 48 hrs by sulforhodamine B assay relative to control; details: read-out: Activity
SK-MEL-2 [9] = experiment: Cytotoxicity against human SK-MEL-2 cells assessed as cell growth at 1 uM after 48 hrs by sulforhodamine B assay relative to control; details: SK-MEL-2, 48 h, read-out: Activity
CAKI-1 [10] = experiment: Cytotoxicity against human Caki1 cells assessed as cell growth at 1 uM after 48 hrs by sulforhodamine B assay relative to control; details: CAKI-1, 48 h, read-out: Activity
SK-MEL-2 [11] = experiment: Cytotoxicity against human SK-MEL-2 cells assessed as cell growth at 10 uM after 48 hrs by sulforhodamine B assay relative to control; details: SK-MEL-2, 48 h, read-out: Activity
CAKI-1 [12] = experiment: Cytotoxicity against human Caki1 cells assessed as cell growth at 10 uM after 48 hrs by sulforhodamine B assay relative to control; details: CAKI-1, 48 h, read-out: Activity
LOX IMVI [13] = experiment: Cytotoxicity against human LOXIMVI cells assessed as cell growth at 100 uM after 48 hrs by sulforhodamine B assay relative to control; details: read-out: Activity
SK-MEL-2 [14] = experiment: Cytotoxicity against human SK-MEL-2 cells assessed as cell growth at 100 uM after 48 hrs by sulforhodamine B assay relative to control; details: SK-MEL-2, 48 h, read-out: Activity
CAKI-1 [15] = experiment: Cytotoxicity against human Caki1 cells assessed as cell growth at 100 uM after 48 hrs by sulforhodamine B assay relative to control; details: CAKI-1, 48 h, read-out: Activity
HOP-92 [16] = experiment: Cytotoxicity against human HOP92 cells assessed as growth inhibition after 48 hrs by sulforhodamine B assay; details: HOP-92, 48 h; for CC50: read-out: LC50 (the source's name)
SF-295 [17] = experiment: Cytotoxicity against human SF295 cells assessed as growth inhibition after 48 hrs by sulforhodamine B assay; details: SF-295, 48 h
SNB-75 [18] = experiment: Cytotoxicity against human SNB75 cells assessed as growth inhibition after 48 hrs by sulforhodamine B assay; details: SNB-75, 48 h
SF-295 [19] = experiment: Cytotoxicity against human SF295 cells assessed as cell growth at 0.01 uM after 48 hrs by sulforhodamine B assay relative to control; details: SF-295, 48 h, read-out: Activity
HOP-92 [20] = experiment: Cytotoxicity against human HOP92 cells assessed as cell growth at 0.01 uM after 48 hrs by sulforhodamine B assay relative to control; details: HOP-92, 48 h, read-out: Activity
HOP-92 [21] = experiment: Cytotoxicity against human HOP92 cells assessed as cell growth at 0.1 uM after 48 hrs by sulforhodamine B assay relative to control; details: HOP-92, 48 h, read-out: Activity
SF-295 [22] = experiment: Cytotoxicity against human SF295 cells assessed as cell growth at 0.1 uM after 48 hrs by sulforhodamine B assay relative to control; details: SF-295, 48 h, read-out: Activity
SNB-75 [23] = experiment: Cytotoxicity against human SNB75 cells assessed as cell growth at 0.1 uM after 48 hrs by sulforhodamine B assay relative to control; details: SNB-75, 48 h, read-out: Activity
HOP-92 [24] = experiment: Cytotoxicity against human HOP92 cells assessed as cell growth at 1 uM after 48 hrs by sulforhodamine B assay relative to control; details: HOP-92, 48 h, read-out: Activity
SF-295 [25] = experiment: Cytotoxicity against human SF295 cells assessed as cell growth at 1 uM after 48 hrs by sulforhodamine B assay relative to control; details: SF-295, 48 h, read-out: Activity
SNB-75 [26] = experiment: Cytotoxicity against human SNB75 cells assessed as cell growth at 1 uM after 48 hrs by sulforhodamine B assay relative to control; details: SNB-75, 48 h, read-out: Activity
HOP-92 [27] = experiment: Cytotoxicity against human HOP92 cells assessed as cell growth at 10 uM after 48 hrs by sulforhodamine B assay relative to control; details: HOP-92, 48 h, read-out: Activity
SF-295 [28] = experiment: Cytotoxicity against human SF295 cells assessed as cell growth at 10 uM after 48 hrs by sulforhodamine B assay relative to control; details: SF-295, 48 h, read-out: Activity
SNB-75 [29] = experiment: Cytotoxicity against human SNB75 cells assessed as cell growth at 10 uM after 48 hrs by sulforhodamine B assay relative to control; details: SNB-75, 48 h, read-out: Activity
HOP-92 [30] = experiment: Cytotoxicity against human HOP92 cells assessed as cell growth at 100 uM after 48 hrs by sulforhodamine B assay relative to control; details: HOP-92, 48 h, read-out: Activity
SF-295 [31] = experiment: Cytotoxicity against human SF295 cells assessed as cell growth at 100 uM after 48 hrs by sulforhodamine B assay relative to control; details: SF-295, 48 h, read-out: Activity
SNB-75 [32] = experiment: Cytotoxicity against human SNB75 cells assessed as cell growth at 100 uM after 48 hrs by sulforhodamine B assay relative to control; details: SNB-75, 48 h, read-out: Activity

Compound | LC50 (CAKI-1 [1]) | TGI (CAKI-1 [1]) | growth at 0.01 µM (CAKI-1 [2]) | growth at 0.01 µM (SK-MEL-2 [3]) | growth at 0.01 µM (LOX IMVI [4]) | growth at 0.1 µM (LOX IMVI [5]) | growth at 0.1 µM (SK-MEL-2 [6]) | growth at 0.1 µM (CAKI-1 [7]) | growth at 1 µM (LOX IMVI [8]) | growth at 1 µM (SK-MEL-2 [9]) | growth at 1 µM (CAKI-1 [10]) | growth at 10 µM (SK-MEL-2 [11]) | growth at 10 µM (CAKI-1 [12]) | growth at 100 µM (LOX IMVI [13]) | growth at 100 µM (SK-MEL-2 [14]) | growth at 100 µM (CAKI-1 [15]) | GI50 (HOP-92 [16]) | TGI (HOP-92 [16]) | GI50 (SF-295 [17]) | GI50 (SNB-75 [18]) | other results
COc1cc(-c2cc(/C=C/C(=O)c3ccc4c(c3)OCO4)[nH]n2)cc(OC)c1OC | > 100 µM | > 100 µM | 96% | 90% | 93% | 93% | 93% | 96% | 91% | 101% | 92% | 51% | 35% | -54% | -60% | 27% |  |  |  |  | 
COc1ccc(-c2cc(/C=C/C(=O)c3ccc(N)cc3)[nH]n2)cc1OC |  |  |  | 103% | 100% | 102% | 109% |  | 96% | 102% |  | 46% |  | -81% | -86% |  | 1.49 µM | 30.9 µM | 3.58 µM | 2.74 µM | CC50 (HOP-92 [16]): 63.9 µM; LC50 (SF-295 [17]): 42.9 µM; TGI (SF-295 [17]): 15.2 µM; LC50 (concentration killing 50% of cells) (SNB-75 [18]): 39 µM; TGI (SNB-75 [18]): 14.2 µM; growth at 0.01 µM (SF-295 [19]): 83%; growth at 0.01 µM (HOP-92 [20]): 86%; growth at 0.1 µM (HOP-92 [21]): 87%; growth at 0.1 µM (SF-295 [22]): 90%; growth at 0.1 µM (SNB-75 [23]): 92%; growth at 1 µM (HOP-92 [24]): 87%; growth at 1 µM (SF-295 [25]): 87%; growth at 1 µM (SNB-75 [26]): 75%; growth at 10 µM (HOP-92 [27]): 77%; growth at 10 µM (SF-295 [28]): 20%; growth at 10 µM (SNB-75 [29]): 17%; growth at 100 µM (HOP-92 [30]): -81%; growth at 100 µM (SF-295 [31]): -91%; growth at 100 µM (SNB-75 [32]): -97%
COc1ccc(-c2cc(/C=C/C(=O)c3ccc(N)cc3)[nH]n2)cc1 | 64.3 µM | 11.1 µM | 95% |  |  |  |  | 97% |  |  | 56% |  | 3% |  |  | -63% |  |  | 3.09 µM | 2.25 µM | LC50 (SF-295 [17]): 49.6 µM; TGI (SF-295 [17]): 13.1 µM; LC50 (concentration killing 50% of cells) (SNB-75 [18]): 35.3 µM; TGI (SNB-75 [18]): 11.4 µM; GI50 (CAKI-1 [1]): 1.32 µM; growth at 0.01 µM (SF-295 [19]): 93%; growth at 0.1 µM (SF-295 [22]): 95%; growth at 0.1 µM (SNB-75 [23]): 88%; growth at 1 µM (SF-295 [25]): 88%; growth at 1 µM (SNB-75 [26]): 74%; growth at 10 µM (SF-295 [28]): 10%; growth at 10 µM (SNB-75 [29]): 6%; growth at 100 µM (SF-295 [31]): -76%; growth at 100 µM (SNB-75 [32]): -96%
COc1ccc(-c2cc(/C=C/C(=O)c3ccc4c(c3)OCO4)[nH]n2)cc1OC |  |  |  |  |  |  |  |  |  |  |  |  |  |  |  |  | 1.97 µM |  | 1.6 µM | 1.16 µM | 
COc1cc(-c2cc(/C=C/C(=O)c3ccc(Cl)c(Cl)c3)[nH]n2)cc(OC)c1OC | > 100 µM | > 100 µM | 91% | 94% | 96% | 92% | 88% | 91% | 88% | 99% | 87% | 68% | 62% | -58% | -60% | 11% |  | 8.25 µM |  |  | CC50 (HOP-92 [16]): 75.9 µM; growth at 0.01 µM (HOP-92 [20]): 89%; growth at 0.1 µM (HOP-92 [21]): 90%; growth at 1 µM (HOP-92 [24]): 89%; growth at 10 µM (HOP-92 [27]): -8%; growth at 100 µM (HOP-92 [30]): -56%
